Where two headings read alike, the source gives them in different places.
Key:
[1] = target: human CK2 catalytic subunit (CK2α) (Homo sapiens, UniProt P68400); test: Radiometric (P81 filter isotopic) kinase assay, CK2 catalytic subunit; format: biochemical; conditions: read-out: Residual Activity of the Enzyme CK2α; for remaining activity at 5 µM: 5 µM compound; for remaining activity at 10 µM: 10 µM compound
[2] = target: CK2 holoenzyme (CK2 α2β2) (Homo sapiens, UniProt P68400); test: Radiometric (P81 filter isotopic) kinase assay, CK2 holoenzyme; format: biochemical; conditions: read-out: Residual Activity of the Enzyme CK2 α2β2; for remaining activity at 5 µM: 5 µM compound; for remaining activity at 10 µM: 10 µM compound
Chain of CK2 holoenzyme (CK2 α2β2) (P68400 whole entry): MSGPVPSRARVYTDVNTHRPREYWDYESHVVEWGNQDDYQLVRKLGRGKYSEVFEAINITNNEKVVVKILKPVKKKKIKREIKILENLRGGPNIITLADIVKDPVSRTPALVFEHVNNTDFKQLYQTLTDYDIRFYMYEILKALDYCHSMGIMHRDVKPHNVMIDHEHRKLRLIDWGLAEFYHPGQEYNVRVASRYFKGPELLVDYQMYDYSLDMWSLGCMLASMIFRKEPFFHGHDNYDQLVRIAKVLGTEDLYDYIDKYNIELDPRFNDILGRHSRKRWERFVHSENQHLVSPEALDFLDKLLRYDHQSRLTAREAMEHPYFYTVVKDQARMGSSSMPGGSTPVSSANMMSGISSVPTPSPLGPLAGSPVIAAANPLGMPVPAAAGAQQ
Chain of CK2 holoenzyme (CK2 α2β2) (P67870 whole entry partner): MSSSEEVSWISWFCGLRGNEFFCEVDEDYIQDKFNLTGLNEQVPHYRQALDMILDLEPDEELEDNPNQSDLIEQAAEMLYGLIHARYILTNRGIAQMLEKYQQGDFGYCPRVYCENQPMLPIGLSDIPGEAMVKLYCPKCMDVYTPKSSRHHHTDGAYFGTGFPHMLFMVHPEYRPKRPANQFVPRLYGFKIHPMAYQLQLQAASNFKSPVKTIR

PIM1 = PIM1 (Homo sapiens, UniProt P11309); test: Radiometric (P81 filter isotopic) kinase assay, PIM1; format: biochemical; conditions: read-out: Residual Activity of the Enzyme PIM1; for remaining activity at 5 µM: 5 µM compound; for remaining activity at 10 µM: 10 µM compound
Chain of PIM1 (P11309 whole entry, species assumed): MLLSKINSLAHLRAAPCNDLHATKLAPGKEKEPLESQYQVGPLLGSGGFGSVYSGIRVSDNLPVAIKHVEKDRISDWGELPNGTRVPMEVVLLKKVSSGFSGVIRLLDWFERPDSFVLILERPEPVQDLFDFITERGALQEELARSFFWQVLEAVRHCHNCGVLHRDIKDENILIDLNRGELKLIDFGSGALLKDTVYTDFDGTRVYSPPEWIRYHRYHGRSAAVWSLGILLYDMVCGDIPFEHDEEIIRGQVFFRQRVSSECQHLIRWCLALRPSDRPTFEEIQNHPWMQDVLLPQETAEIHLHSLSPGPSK

MCF-7 cells [3] = test: MTT viability assay, MCF-7; format: cell-based; conditions: Homo sapiens, read-out: EC50 ± SD MCF-7
Method: To test the anti-cancer effect of the TBBi derivatives, we treated the MCF-7 and MDA-MB-231 cells with the newly synthesized esters and previously reported compounds [34, 57] at the concentration range of 3.125 to 200 µM for 24 h, 48 h and 72 h. Additionally, the range of concentrations was extended by additional lower concentrations in MCF-7 for compound 4 with the minimum concentration of 0.195 µM. […] The EC50 values, describing the half maximal effective concentration of each tested compound, were calculated and are summarized in Table 2. […] We observed that the EC50 values increase in both cell lines with the elongation of fatty acids chain length in the tested compounds, thus strongly correlating with the decrease of their solubility in biological media as characterized by logS parameter (Table 2). The second reason for the decreased biological activity of the longer-chain aliphatic esters might be attributed to their greater resistance toward intracellular hydrolysis, which directly influences the slower release of the active form of the corresponding CK2 inhibitors. […] However, none of the tested compounds, except for compound 5, decreased the viability of both cell lines in a time-dependent manner (Figure 4).
MCF-7 and MDA-MB-231 were cultured in high-glucose Dulbecco’s modified Eagle medium (DMEM, Lonza, Basel, Switzerland) supplemented with 10% fetal bovine serum (FBS, EuroClone, Siziano, Italy)), 2 mM L-glutamine, and antibiotics (100 U/mL penicillin, 100 µg/mL streptomycin) (Sigma-Aldrich Chemical Company (St. Louis, MO, USA). Cells were grown in 75-cm^2 cell culture flasks (Sarstedt, Nümbrecht, Germany) in a humidified atmosphere of CO2/air (5%/95%) at 37 °C. All the experiments were performed in exponentially growing cultures. Stock solutions of the test compounds were prepared in DMSO and stored in −80 °C for a maximum of one month. For the cytotoxicity studies, stock solutions of the tested compounds were diluted 200-fold with the proper culture medium to obtain the final concentrations.
After incubation with the tested compounds, an MTT test was performed as described previously. Optical densities were measured at 570 nm using BioTek microplate reader (Winooski, VT, USA). All measurements were carried out in a minimum of three biological replicates.

MDA-MB-231 cells = test: Annexin V-FITC/PI flow cytometry, MDA-MB-231; format: cell-based, human; conditions: compound at its EC50
Method: Similar to the results obtained for MCF-7 cells, compound 6b acted in MDA-MB-231 cells as an effective inducer of apoptosis with the amount of apoptotic cells equal to 31.5% and 49% after 24 h and 72 h of treatment, respectively.
MCF-7 cells were seeded in six-well plates at 1.5 × 10^5 cells/well. […] Then, the plates were incubated for 24 h or 72 h. After exposure to the examined compounds, the floating cells were collected, and monolayer cell culture was trypsinized. The cells were centrifugated at 200× g at 4 °C for 5 min, washed twice in cold phosphate-buffered saline (PBS), and subsequently suspended in binding buffer at 1 × 10^6 cells/mL. Subsequently, 100-μL aliquots of the cell suspension were labeled according to the kit manufacturer’s instructions. Briefly, annexin V-fluorescein isothiocyanate and propidium iodide (BD Biosciences, Pharmingen, San Diego, CA, USA) were added to the cell suspension, and the mixture was vortexed and then incubated for 15 min at RT in the dark. A cold binding buffer (900 μL) was then added and the cells were vortexed again and kept on ice. Flow cytometric measurements were performed within 1 h after labeling. Viable, necrotic, early, and late apoptotic cells were detected by flow cytometry using CyFlow Cube 8 (Sysmex, Norderstedt, Germany) flow cytometer.

MCF-7 cells [4] = test: Cell cycle progression by flow cytometry, MCF-7; format: cell-based, human; conditions: MCF-7, 72 h, compound at its EC50

Chain of human CK2 catalytic subunit (CK2α) (P68400 whole entry): as the sequence (P68400 whole entry) above

remaining activity at 5 µM [1] [%] | remaining activity at 10 µM [1] [%] | remaining activity at 5 µM [2] [%] | remaining activity at 10 µM [2] [%] | remaining activity at 5 µM (PIM1) [%] | remaining activity at 10 µM (PIM1) [%] | EC50 (MCF-7 cells [3]; MCF7, 24 h) [µM] | EC50 (MCF-7 cells [3]; MCF7, 48 h) [µM] | EC50 (MCF-7 cells [3]; MCF7, 72 h) [µM] | Compound | apoptotic cells (MDA-MB-231 cells; MDA-MB-231, 24 h treatment) [%] | apoptotic cells (MDA-MB-231 cells; MDA-MB-231, 72 h treatment) [%] | cells in G1 (MCF-7 cells [4]) [%] | cells in G2M (MCF-7 cells [4]) [%] | cells in S (MCF-7 cells [4]) [%]
86.1 ± 4.2 | 79.2 ± 7.6 | 95.3 ± 2.9 | 92.7 ± 3.5 | 99.1 ± 15.7 | 95.4 ± 4 | 24.3 ± 0.25 | 21.1 ± 1.23 | 29.9 ± 1.45 | CCCCCCCC(=O)OCCCn1cnc2c(Br)c(Br)c(Br)c(Br)c21 [Compound 3c, 3-(4,5,6,7-Tetrabromo-1H-benzimidazol-1-yl)propyl octanoate] | 32.5 | 50.5 | 59.4 | 11.0 | 29.6
76.8 ± 1.9 | 74.3 ± 0.1 | 85.4 ± 0.6 | 71.4 ± 0.2 | 62.4 ± 8.3 | 46.4 ± 2.7 | 22.4 ± 1.12 | 18.59 ± 0.18 | 18.3 ± 2.86 | CCCCCC(=O)OCCCn1c(C)nc2c(Br)c(Br)c(Br)c(Br)c21 [Compound 6b, (4,5,6,7-Tetrabromo-2-methyl-1H-benzimidazol-1-yl)propyl hexanoate] | 31.5 | 49 | 50.1 | 19.9 | 30.0

— publication PMC8230474, “Synthesis of Novel Acyl Derivatives of 3-(4,5,6,7-Tetrabromo-1H-benzimidazol-1-yl)propan-1-ols—Intracellular TBBi-Based CK2 Inhibitors with Proapoptotic Properties” (International Journal of Molecular Sciences, 2021)
